In ChEMBL document CHEMBL5223082, “Alkyl-Aryl-Vancomycins: Multimodal Glycopeptides with Weak Dependence on the Bacterial Metabolic State” (J Med Chem, 2021):
≈ marks a conversion by molar mass, not a printed value.

Key:
[1] = Induction of hemolysis in human erythrocytes incubated for 1 hr by microtiter plater reader analysis; format: toxicity, cell-based, Erythrocyte
Enterococcus [2] = assay: Antibacterial activity against Vancomycin-resistant Enterococci NR30909 assessed as inhibition of bacterial growth incubated for 18 to 24 hrs by CLSI microbroth dilution method; format: functional; conditions: time 18-24 hrs
Staphylococcus aureus [3] = assay: Antibacterial activity against Vancomycin-resistant Staphylococcus aureus 4 assessed as inhibition of bacterial growth incubated for 18 to 24 hrs by CLSI microbroth dilution method; format: functional; conditions: time 18-24 hrs
Staphylococcus aureus [4] = assay: Antibacterial activity against Vancomycin-resistant Staphylococcus aureus 12 assessed as inhibition of bacterial growth incubated for 18 to 24 hrs by CLSI microbroth dilution method; format: functional; conditions: time 18-24 hrs
Enterococcus [5] = assay: Antibacterial activity against Vancomycin-resistant Enterococci ATCC 51575 assessed as inhibition of bacterial growth incubated for 18 to 24 hrs by CLSI microbroth dilution method; format: functional; conditions: time 18-24 hrs
Staphylococcus aureus [6] = assay: Antibacterial activity against Methicillin-resistant Staphylococcus aureus ATCC 33591 assessed as inhibition of bacterial growth incubated for 18 to 24 hrs by CLSI microbroth dilution method; format: functional; conditions: time 18-24 hrs
Enterococcus [7] = assay: Antibacterial activity against Vancomycin-resistant Enterococci NR30903 assessed as inhibition of bacterial growth incubated for 18 to 24 hrs by CLSI microbroth dilution method; format: functional; conditions: time 18-24 hrs
Enterococcus [8] = assay: Antibacterial activity against Vancomycin-resistant Enterococci ATCC 51559 assessed as inhibition of bacterial growth incubated for 18 to 24 hrs by CLSI microbroth dilution method; format: functional; conditions: time 18-24 hrs
Staphylococcus aureus [9] = assay: Antibacterial activity against Vancomycin-resistant Staphylococcus aureus 1 assessed as inhibition of bacterial growth incubated for 18 to 24 hrs by CLSI microbroth dilution method; format: functional; conditions: time 18-24 hrs
Enterococcus [10] = assay: Potency index, ratio of Vancomycin MIC to test compound MIC for antibacterial activity against Vancomycin-resistant Enterococci ATCC 51559; format: functional
Staphylococcus aureus [11] = assay: Potency index, ratio of Vancomycin MIC to test compound MIC for antibacterial activity against Vancomycin-resistant Staphylococcus aureus 12; format: functional
Staphylococcus aureus [12] = assay: Potency index, ratio of Vancomycin MIC to test compound MIC for antibacterial activity against Vancomycin-resistant Staphylococcus aureus 1; format: functional
Enterococcus [13] = assay: Potency index, ratio of Vancomycin MIC to test compound MIC for antibacterial activity against Vancomycin-resistant Enterococci NR30903; format: functional, NR 30903
Enterococcus [14] = assay: Potency index, ratio of Vancomycin MIC to test compound MIC for antibacterial activity against Vancomycin-resistant Enterococci ATCC 51575; format: functional
Staphylococcus aureus [15] = assay: Potency index, ratio of Vancomycin MIC to test compound MIC for antibacterial activity against Vancomycin-resistant Staphylococcus aureus 4; format: functional
Enterococcus [16] = assay: Potency index, ratio of Vancomycin MIC to test compound MIC for antibacterial activity against Vancomycin-resistant Enterococci NR30909; format: functional, NR 30909
[17] = Induction of hemolysis in human erythrocytes at 250 uM incubated for 1 hr by microtiter plater reader analysis; format: toxicity, cell-based, Erythrocyte; conditions: read-out: Activity

Compound | HC50 at 1 h [1] [µM] | MIC (Enterococcus [2]) [µM] | MIC (Staphylococcus aureus [3]) [µM] | MIC (Staphylococcus aureus [4]) [µM] | MIC (Enterococcus [5]) [µM] | MIC (Staphylococcus aureus [6]) [µM] | MIC (Enterococcus [7]) [µM] | MIC (Enterococcus [8]) [µM] | MIC (Staphylococcus aureus [9]) [µM] | Ratio (Enterococcus [10]) | Ratio (Staphylococcus aureus [11]) | Ratio (Staphylococcus aureus [12]) | Ratio (Enterococcus [13]) | Ratio (Enterococcus [14]) | Ratio (Staphylococcus aureus [15]) | Ratio (Enterococcus [16]) | hemolysis at 1 h, 250 µM [17] [%]
CCCCCCCCCCCCCCNC(=O)c1ccc(CN[C@@]2(C)C[C@H](O[C@H]3[C@H](Oc4c5cc6cc4Oc4ccc(cc4Cl)[C@@H](O)[C@@H](NC(=O)[C@@H](CC(C)C)NC)C(=O)N[C@@H](CC(N)=O)C(=O)N[C@H]6C(=O)N[C@H]4C(=O)N[C@H](C(=O)N[C@H](C(=O)O)c6cc(O)cc(O)c6-c6cc4ccc6O)[C@H](O)c4ccc(c(Cl)c4)O5)O[C@H](CO)[C@@H](O)[C@@H]3O)O[C@@H](C)[C@H]2O)cc1 | 27.5 | 4 (≈ 7.12 µg/mL) | 4 (≈ 7.12 µg/mL) | 4 (≈ 7.12 µg/mL) | 4 (≈ 7.12 µg/mL) | 4 (≈ 7.12 µg/mL) | 2 (≈ 3.56 µg/mL) | 4 (≈ 7.12 µg/mL) | 8 (≈ 14.2 µg/mL) | – | – | – | – | – | – | – | –
CCCCCCCCCCNC(=O)c1ccc(CN[C@@]2(C)C[C@H](O[C@H]3[C@H](Oc4c5cc6cc4Oc4ccc(cc4Cl)[C@@H](O)[C@@H](NC(=O)[C@@H](CC(C)C)NC)C(=O)N[C@@H](CC(N)=O)C(=O)N[C@H]6C(=O)N[C@H]4C(=O)N[C@H](C(=O)N[C@H](C(=O)O)c6cc(O)cc(O)c6-c6cc4ccc6O)[C@H](O)c4ccc(c(Cl)c4)O5)O[C@H](CO)[C@@H](O)[C@@H]3O)O[C@@H](C)[C@H]2O)cc1 | 62.5 | 2 (≈ 3.45 µg/mL) | 1 (≈ 1.72 µg/mL) | 2 (≈ 3.45 µg/mL) | 0.2 (≈ 0.345 µg/mL) | 2 (≈ 3.45 µg/mL) | 2 (≈ 3.45 µg/mL) | 2 (≈ 3.45 µg/mL) | 2 (≈ 3.45 µg/mL) | 670 | 390 | 390 | 670 | 670 | 390 | 670 | –
CN[C@H](CC(C)C)C(=O)N[C@H]1C(=O)N[C@@H](CC(N)=O)C(=O)N[C@H]2C(=O)N[C@H]3C(=O)N[C@H](C(=O)N[C@H](C(=O)O)c4cc(O)cc(O)c4-c4cc3ccc4O)[C@H](O)c3ccc(c(Cl)c3)Oc3cc2cc(c3O[C@@H]2O[C@H](CO)[C@@H](O)[C@H](O)[C@H]2O[C@H]2C[C@](C)(NCc3ccc(-c4ccc(Cl)cc4)cc3)[C@H](O)[C@H](C)O2)Oc2ccc(cc2Cl)[C@H]1O | – | 4.2 (≈ 6.93 µg/mL) | 2.1 (≈ 3.46 µg/mL) | 4.2 (≈ 6.93 µg/mL) | 2.1 (≈ 3.46 µg/mL) | 0.5 (≈ 0.825 µg/mL) | 4.2 (≈ 6.93 µg/mL) | 4.2 (≈ 6.93 µg/mL) | 4.2 (≈ 6.93 µg/mL) | – | – | – | – | – | – | – | –
CCCCCCCCCCCCNC(=O)C[N+](C)(C)CCCNC(=O)c1ccc(CN[C@@]2(C)C[C@H](O[C@H]3[C@H](Oc4c5cc6cc4Oc4ccc(cc4Cl)[C@@H](O)[C@@H](NC(=O)[C@@H](CC(C)C)NC)C(=O)N[C@@H](CC(N)=O)C(=O)N[C@H]6C(=O)N[C@H]4C(=O)N[C@H](C(=O)N[C@H](C(=O)O)c6cc(O)cc(O)c6-c6cc4ccc6O)[C@H](O)c4ccc(c(Cl)c4)O5)O[C@H](CO)[C@@H](O)[C@@H]3O)O[C@@H](C)[C@H]2O)cc1 | 72 | 0.9 | 0.9 | 0.9 | 1.8 | 1.8 | 0.9 | 1.8 | 0.9 | 780 | 780 | 780 | 780 | 780 | 780 | 780 | –
CCCCCCCCNC(=O)C[N+](C)(C)CCCNC(=O)c1ccc(CN[C@@]2(C)C[C@H](O[C@H]3[C@H](Oc4c5cc6cc4Oc4ccc(cc4Cl)[C@@H](O)[C@@H](NC(=O)[C@@H](CC(C)C)NC)C(=O)N[C@@H](CC(N)=O)C(=O)N[C@H]6C(=O)N[C@H]4C(=O)N[C@H](C(=O)N[C@H](C(=O)O)c6cc(O)cc(O)c6-c6cc4ccc6O)[C@H](O)c4ccc(c(Cl)c4)O5)O[C@H](CO)[C@@H](O)[C@@H]3O)O[C@@H](C)[C@H]2O)cc1 | > 250 | 0.9 | 3.7 | 3.7 | 14.7 | 0.4 | 0.9 | 14.7 | 1.8 | 750 | 750 | 750 | 750 | 750 | 750 | 750 | 1
CN[C@H](CC(C)C)C(=O)N[C@H]1C(=O)N[C@@H](CC(N)=O)C(=O)N[C@H]2C(=O)N[C@H]3C(=O)N[C@H](C(=O)N[C@H](C(=O)O)c4cc(O)cc(O)c4-c4cc3ccc4O)[C@H](O)c3ccc(c(Cl)c3)Oc3cc2cc(c3O[C@@H]2O[C@H](CO)[C@@H](O)[C@H](O)[C@H]2O[C@H]2C[C@](C)(NCc3ccc(C(=O)NCCC[N+](C)(C)Cc4ccccc4)cc3)[C@H](O)[C@H](C)O2)Oc2ccc(cc2Cl)[C@H]1O | > 250 | > 30 | 30.5 | 30.5 | > 30 | 0.9 | > 30 | > 30 | 30.5 | – | – | – | – | – | – | – | 0
CCCCCCCCCCNC(=O)C[N+](C)(C)CCCNC(=O)c1ccc(C)cc1 | – | > 40 | – | – | > 40 | – | > 40 | > 40 | – | – | – | – | – | – | – | – | –
CCCCCCCCCCCCCCNC(=O)C[N+](C)(C)CCCNC(=O)c1ccc(CN[C@@]2(C)C[C@H](O[C@H]3[C@H](Oc4c5cc6cc4Oc4ccc(cc4Cl)[C@@H](O)[C@@H](NC(=O)[C@@H](CC(C)C)NC)C(=O)N[C@@H](CC(N)=O)C(=O)N[C@H]6C(=O)N[C@H]4C(=O)N[C@H](C(=O)N[C@H](C(=O)O)c6cc(O)cc(O)c6-c6cc4ccc6O)[C@H](O)c4ccc(c(Cl)c4)O5)O[C@H](CO)[C@@H](O)[C@@H]3O)O[C@@H](C)[C@H]2O)cc1 | 35 | 0.9 | 1.8 | 1.8 | 1.8 | 1.8 | 0.9 | 1.8 | 1.8 | 780 | 780 | 780 | 780 | 780 | 780 | 780 | –
CN[C@H](CC(C)C)C(=O)N[C@H]1C(=O)N[C@@H](CC(N)=O)C(=O)N[C@H]2C(=O)N[C@H]3C(=O)N[C@H](C(=O)N[C@H](C(=O)O)c4cc(O)cc(O)c4-c4cc3ccc4O)[C@H](O)c3ccc(c(Cl)c3)Oc3cc2cc(c3O[C@@H]2O[C@H](CO)[C@@H](O)[C@H](O)[C@H]2O[C@H]2C[C@](C)(NCc3ccc(C(=O)NCCC[N+](C)(C)Cc4cccc5ccccc45)cc3)[C@H](O)[C@H](C)O2)Oc2ccc(cc2Cl)[C@H]1O | > 250 | 7.4 | 14.9 | 3.7 | > 30 | 0.9 | 14.9 | > 30 | 29.8 | – | – | – | – | – | – | – | 0
